Laboratory results from US11584714B2 (priority 2018, dated 2023).
pKi: −log10 of the molar value. Structures can show the parent of a compound that is named as a salt. Where two headings read alike, the source gives them in different places.

Columns and labels:
Format in all cases: biochemical
[1] = biological target: human α-thrombin (Homo sapiens (Human), UniProt P00734); experiment: Enzymatic assay for thrombin (Boc-VPR-AMC substrate); conditions: for pKi: read-out: Thrombin Ki; for Ki: Thrombin Ki (μM)
[2] = biological target: mMASP-2 (Mus musculus (Mouse), UniProt Q91WP0); experiment: Enzymatic inhibition of mMASP-2; conditions: read-out: mMASP-2 Ki
[3] = biological target: MASP-2 (CCP1-CCP2-SP) (Homo sapiens (Human), UniProt O00187); experiment: biochemical
[4] = MASP-2 inhibition versus thrombin
[5] = selectivity for MASP-2 inhibition versus thrombin

Sequence of mMASP-2 (Q91WP0 20-685): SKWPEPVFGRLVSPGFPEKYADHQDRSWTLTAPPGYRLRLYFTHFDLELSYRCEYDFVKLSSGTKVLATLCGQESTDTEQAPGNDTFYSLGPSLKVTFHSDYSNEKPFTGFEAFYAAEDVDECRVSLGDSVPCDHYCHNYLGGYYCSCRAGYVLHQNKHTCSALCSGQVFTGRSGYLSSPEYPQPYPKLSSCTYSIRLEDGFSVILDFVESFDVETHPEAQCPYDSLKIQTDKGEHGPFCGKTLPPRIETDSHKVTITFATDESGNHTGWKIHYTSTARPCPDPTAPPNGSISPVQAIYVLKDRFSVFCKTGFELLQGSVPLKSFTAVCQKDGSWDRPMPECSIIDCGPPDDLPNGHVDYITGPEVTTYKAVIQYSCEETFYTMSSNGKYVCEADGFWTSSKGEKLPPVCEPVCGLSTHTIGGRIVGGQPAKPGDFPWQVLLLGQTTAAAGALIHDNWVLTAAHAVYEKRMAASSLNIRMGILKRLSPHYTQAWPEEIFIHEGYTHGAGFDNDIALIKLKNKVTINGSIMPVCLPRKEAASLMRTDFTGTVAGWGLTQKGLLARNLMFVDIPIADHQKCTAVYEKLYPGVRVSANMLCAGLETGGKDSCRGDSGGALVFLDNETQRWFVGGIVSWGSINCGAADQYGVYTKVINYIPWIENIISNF
Sequence of MASP-2 (CCP1-CCP2-SP) (O00187 445-686): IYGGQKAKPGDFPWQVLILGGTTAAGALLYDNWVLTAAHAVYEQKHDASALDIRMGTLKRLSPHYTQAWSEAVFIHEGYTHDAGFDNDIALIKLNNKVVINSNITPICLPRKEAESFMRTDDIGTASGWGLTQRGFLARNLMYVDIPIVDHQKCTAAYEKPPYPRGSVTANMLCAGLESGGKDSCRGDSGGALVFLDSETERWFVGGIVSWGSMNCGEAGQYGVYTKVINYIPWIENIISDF

Compound | pKi [1] | pKi [2] | MASP-2 vs. thrombin selectivity [3, 4] | pKi ([3]; read-out: MASP-2 Ki) | pKi [3] | MASP-2 vs. thrombin selectivity [3, 5] | Ki [1] [µM]
CCCCCN[C@H](CCc1ccccc1)C(=O)N[C@@H](C)C(=O)NCc1ccc(C(=N)N)cc1 [compound 1125] | > 6.30 | > 6.30 | −− (less than 1.0-fold) | > 6.30 |  |  | 
C[C@H](NC(=O)[C@H](CCc1ccccc1)NCc1c[nH]c2ccccc12)C(=O)NCc1ccc(C(=N)N)cc1 [compound 1223] | > 6.30 | > 6.30 | *** (25 to 100-fold) | > 6.30 |  |  | 
C[C@H](NC(=O)[C@H]1C[C@H](c2ccccc2)CN1)C(=O)NCc1ccc2c(N)noc2c1 [compound 1390, (2R,4R)—N—((S)-1-(((3-Aminobenzo[d]isoxazol-6-yl)methyl)amino)-1-oxopropan-2-yl)-4-phenylpyrrolidine-2-carboxamide Di-trifluoroacetate salt] | < 4.60 | < 4.60 |  |  | 5.00 to 5.60 |  | 
C[C@H](OC(=O)[C@H](N)CCc1ccccc1)C(=O)NCc1ccc(C(=N)N)cc1 [compound 1315, (S)-1-((4-Carbamimidoylbenzyl)amino)-1-oxopropan-2-yl (R)-2-amino-4-phenylbutanoate Hydrochloride] |  | > 6.30 |  |  |  | * (≥1.0 to <5.0-fold) | 
C[C@H](NC(=O)[C@H](N)CCc1ccccc1)C(=O)NCc1cnc(N)c(Cl)c1 [compound 1275, (R)-2-Amino-N—((S)-1-(((6-amino-5-chloropyridin-3-yl)methyl)amino)-1-oxopropan-2-yl)-4-phenylbutanamide] | < 4.60 | < 4.60 |  |  | 5.60 to 6.30 | *** (≥25 to <100-fold) | 
Cc1nc(N)ccc1CNC(=O)[C@H](C)NC(=O)[C@H]1C[C@H](Cc2ccc(OC(F)(F)F)c(Cl)c2)CN1 [compound 1455, (2R,4S)—N—((S)-1-(((6-Amino-2-methylpyridin-3-yl)methyl)amino)-1-oxopropan-2-yl)-4-(3-chloro-4-(trifluoromethoxy)benzyl)pyrrolidine-2-carboxamide Di-trifluoroacetate salt] | < 4.60 | > 6.30 |  | > 6.30 |  | **** (≥100-fold) | 
C[C@H](NC(=O)[C@H]1C[C@H](c2ccccc2)CN1)C(=O)NCc1cc(Cl)ccc1NS(C)(=O)=O [compound 1274, (2R,4R)—N—((S)-1-((5-chloro-2-(methylsulfonamido)benzyl)amino)-1-oxopropan-2-yl)-4-phenylpyrrolidine-2-carboxamide] | < 4.60 | 4.60 to 5.00 |  |  | 5.00 to 5.60 | ** (≥5.0 to <25-fold) | 
CCc1cccc([C@H]2CN[C@@H](C(=O)N[C@@H](C)C(=O)NCc3ccc(C(=N)N)cc3)C2)c1 [compound 1302, (2R,4S)—N—((S)-1-((4-Carbamimidoylbenzyl)amino)-1-oxopropan-2-yl)-4-(3-ethylphenyl)pyrrolidine-2-carboxamide Dihydrochloride] |  | > 6.30 |  | > 6.30 |  | *** (≥25 to <100-fold) | 0.5 to 2.5
Cc1nc(N)ccc1CNC(=O)[C@H](C)NC(=O)c1cc(Cc2ccccc2)c[nH]1 [compound 1467, (S)—N-(1-(((6-Amino-2-methylpyridin-3-yl)methyl)amino)-1-oxopropan-2-yl)-4-benzyl-1H-pyrrole-2-carboxamide trifluoroacetic acid] | < 4.60 | 5.60 to 6.30 |  | > 6.30 |  | **** (≥100-fold) | 
Cc1ccc([C@H]2CCN[C@@H](C(=O)N[C@@H](C)C(=O)NCc3ccc(C(=N)N)cc3)C2)cc1 [compound 1249, (2R,4S)—N—((S)-1-((4-Carbamimidoylbenzyl)amino)-1-oxopropan-2-yl)-4-(p-tolyl)piperidine-2-carboxamide] |  | > 6.30 |  | > 6.30 |  | **** (≥100-fold) | 10 to 25
Cc1nc(N)ccc1CNC(=O)[C@H](C)NC(=O)[C@H]1C[C@@H](c2ccccc2)CCN1CC(=O)O [compound 1398, 2-((2R,4S)-2-(((S)-1-(((6-Amino-2-methylpyridin-3-yl)methyl)amino)-1-oxopropan-2-yl)carbamoyl)-4-phenylpiperidin-1-yl)acetic acid Trifluoroacetate salt] | < 4.60 | 5.60 to 6.30 |  | > 6.30 |  |  | 
Cc1nc(N)ccc1CNC(=O)[C@@H](C)NC(=O)[C@H]1C[C@H](Cc2cccc(C(F)(F)F)c2)C(=O)N1 [compound 1321, (2R,4S)—N—((R)-1-(((6-Amino-2-methylpyridin-3-yl)methyl)amino)-1-oxopropan-2-yl)-5-oxo-4-(3-(trifluoromethyl)benzyl)pyrrolidine-2-carboxamide Di-trifluoroacetate salt] | < 4.60 | < 4.60 |  |  | 4.60 to 5.00 |  | 
C[C@H](NC(=O)[C@H](N)CCc1ccccc1)C(=O)NCCOc1ccc(N)nc1 [compound 1215] | < 4.60 | > 4.60 |  |  |  |  | 
CCOC(=O)CCCN1CC[C@H](c2ccccc2)C[C@@H]1C(=O)N[C@@H](C)C(=O)NCc1ccc(N)nc1C [compound 1440, Ethyl 4-((2R,4S)-2-(((S)-1-(((6-amino-2-methylpyridin-3-yl)methyl)amino)-1-oxopropan-2-yl)carbamoyl)-4-phenylpiperidin-1-yl)butanoate] | < 4.60 | 5.00 to 5.60 |  | > 6.30 |  |  | 
Cc1nc(N)ccc1CNC(=O)[C@H](C)NC(=O)[C@H]1C[C@H](Cc2cccc(C(F)(F)F)c2)C(=O)N1 [compound 1320, (2R,4S)—N—((S)-1-(((6-Amino-2-methylpyridin-3-yl)methyl)amino)-1-oxopropan-2-yl)-5-oxo-4-(3-(trifluoromethyl)benzyl)pyrrolidine-2-carboxamide Di-trifluoroacetate salt] |  | 5.60 to 6.30 |  | > 6.30 |  | ** (≥5.0 to <25-fold) | 0.5 to 2.5
C[C@H](NC(=O)[C@H]1C[C@H](Cc2ccccc2-c2ccccc2)CN1)C(=O)NCc1cnc2[nH]cc(Cl)c2c1 [compound 1393, (2R,4S)-4-([1,1′-Biphenyl]-2-ylmethyl)-N-((S)-1-(((3-chloro-1H-pyrrolo[2,3-b]pyridin-5-yl)methyl)amino)-1-oxopropan-2-yl)pyrrolidine-2-carboxamide Di-trifluoroacetate salt] | > 6.30 | > 6.30 |  | > 6.30 |  | * (≥1.0 to <5.0-fold) | 
C[C@H](NC(=O)c1cc(-c2cccc3ccccc23)c[nH]1)C(=O)NCc1ccc(C(=N)N)cc1 [compound 1234, (S)—N-(1-((4-Carbamimidoylbenzyl)amino)-1-oxopropan-2-yl)-4-(naphthalen-1-yl)-1H-pyrrole-2-carboxamide] |  | > 6.30 |  | > 6.30 |  |  | 
C[C@H](NC(=O)[C@H]1C[C@@H](c2ccccc2)CCN1)C(=O)NCc1ccc(C(=N)N)cc1 [compound 1230, (2R,4S)—N—((S)-1-((4-Carbamimidoylbenzyl)amino)-1-oxopropan-2-yl)-4-phenylpiperidine-2-carboxamide] |  | > 6.30 |  |  |  |  | 
(2R,4R)-4-([1,1′-Biphenyl]-3-yl)-N-((S)-1-(((6-amino-2-methylpyridin-3-yl)methyl)amino)-1-oxopropan-2-yl)pyrrolidine-2-carboxamide Di-trifluoroacetate salt [compound 1359] |  | 4.60 to 5.00 |  |  |  |  | 
C[C@H](NC(=O)[C@H](N)CCc1ccccc1)C(=O)NCc1ccc2c(N)n[nH]c2c1 [compound 1039] | < 4.60 | > 4.60 |  |  |  |  | 
Cc1nc(N)ccc1CNC(=O)[C@H](C)NC(=O)[C@H]1C[C@H](c2cccc3ccccc23)CCN1 [compound 1342, (2R,4R)—N—((S)-1-(((6-Amino-2-methylpyridin-3-yl)methyl)amino)-1-oxopropan-2-yl)-4-(naphthalen-1-yl)piperidine-2-carboxamide Dihydrochloride] |  | 5.60 to 6.30 |  | > 6.30 |  |  | 
C[C@H](NC(=O)[C@H]1C[C@](O)(c2ccccc2)CCN1)C(=O)NCc1ccc(C(=N)N)cc1 [compound 1101] |  | > 6.30 |  |  |  |  | 
N=C(N)c1ccc(CNC(=O)[C@@H]2CCN2C(=O)[C@H](NCC(=O)O)C2CCCCC2)cc1 [compound 999, melagatran, reference compound] |  | > 6.30 |  |  |  |  | 
Cc1nc(N)ccc1CNC(=O)[C@H](C)NC(=O)[C@H]1C[C@H](Cc2cccc(C(F)(F)F)c2)CN1 [compound 1318, (2R,4S)—N—((S)-1-(((6-Amino-2-methylpyridin-3-yl)methyl)amino)-1-oxopropan-2-yl)-4-(3-(trifluoromethyl)benzyl)pyrrolidine-2-carboxamide Dihydrochloride] |  | > 6.30 |  | > 6.30 |  |  | 
C[C@H](NC(=O)[C@@H]1C[C@@H](c2ccccc2)CCN1)C(=O)NCc1ccc(C(=N)N)cc1 [compound 1486, (2S,4S)—N—((S)-1-((4-carbamimidoylbenzyl)amino)-1-oxopropan-2-yl)-4-phenylpiperidine-2-carboxamide Dihydrochloride] |  | > 6.30 |  |  |  |  | 
C[C@H](NC(=O)[C@H]1C[C@@H](c2ccccc2)CCN1)C(=O)NCc1ccc(C(=N)N)cc1 [compound 1065] |  | > 6.30 |  |  |  |  | 
Cc1ccc(CC[C@@H](N)C(=O)N[C@@H](C)C(=O)NCc2ccc(C(=N)N)cc2)cc1 [compound 1043] |  | > 6.30 |  |  |  |  | 
Cc1nc(N)ccc1CNC(=O)[C@H](C)NC(=O)[C@H]1C[C@@H](c2cccc3ccccc23)CCN1 [compound 1297, (2R,4S)—N—((S)-1-(((6-Amino-2-methylpyridin-3-yl)methyl)amino)-1-oxopropan-2-yl)-4-(naphthalen-1-yl)piperidine-2-carboxamide Dihydrochloride] |  | > 6.30 |  | > 6.30 |  |  | 
C[C@H](NC(=O)[C@H]1C[C@H](c2ccccc2)CCN1)C(=O)NCc1ccc(C(=N)N)cc1 [compound 1485, (2R,4R)—N—((S)-1-((4-carbamimidoylbenzyl)amino)-1-oxopropan-2-yl)-4-phenylpiperidine-2-carboxamide Dihydrochloride] |  | > 6.30 |  |  |  |  | 
